# From patent publication US10086030B2, “Use of composition in preparing health care products or medicines for preventing and treating allergic diseases” (JIANGZHONG PHARMACEUTICAL CO., LTD., priority 2012, dated 2018)
# Where “and” joins values, the source holds several entries; their conditions need not be identical. Equal entries are not always repeated.
# Experiments:
# [1] = tested on: local itching in mice caused by low-molecular-weight dextran; assay: Local itching in mice caused by low-molecular-weight dextran; type: in vivo, Kunming mice
# Procedure: Intragastric administration was carried out to the mice once per day for 10 consecutive days. 30 min after the final administration, a 0.0125% low-molecular-weight dextran solution was injected at 0.1 g/10 g into the tail vein. The number of itching events (itching events were indicated by scratching on the head with front paws, scratching on the body with hind paws, and biting on various parts over the body) occurred within 30 min after injection with the low-molecular-weight dextran solution into tail veins of the mice in each group was observed and recorded. […] The number of itching events (itching events were indicated by scratching on the head with front paws, scratching on the body with hind paws, and biting on various parts over the body) occurred within 30 min after injection with the low-molecular-weight dextran solution into tail veins of the mice in each group was observed and recorded. […] The number of itching events (itching events were indicated by scratching on the head with front paws, scratching on the body with hind paws, and biting on various parts over the body) occurred within 30 min after injection with the low-molecular-weight dextran solution into tail veins of the mice in each group was observed and recorded. […] The number of itching events (itching events were indicated by scratching on the head with front paws, scratching on the body with hind paws, and biting on various parts over the body) occurred within 30 min after injection with the low-molecular-weight dextran solution into tail veins of the mice in each group was observed and recorded.
# [2] = tested on: delayed hypersensitivity in mouse auricle skin caused by 2,4-dinitrochlorobenzene; assay: Delayed hypersensitivity in mouse auricle skin caused by 2,4-dinitrochlorobenzene; type: in vivo, Kunming mice; conditions: mice
# Procedure: A 5% 2,4-dinitrochlorobenzene solution in ethanol was applied onto the abdominal skin (shaved) of the mice for sensitization. […] 7 days after sensitization, a 1% 2,4-dinitrochlorobenzene solution was applied onto the right ear, and the mice were sacrificed after 24 hours, and both ears were cut off along the auricle baseline. Discs having a diameter of 8 mm were punctured out at the same position on both ears, precisely weighed on an electronic balance, and the weight difference between the left and right ears was taken as the value for delayed hypersensitivity.
# [3] = tested on: passive anaphylaxis (PCA) in rats caused by ovalbumin; assay: Passive anaphylaxis (PCA) in rats caused by ovalbumin: diameter of blue spots, mast cell degranulation, serum histamine; type: in vivo, SD rats; conditions: for Diameter of blue spots 1:4: 1:4 anti-ovalbumin serum; for Diameter of blue spots 1:8: 1:8 anti-ovalbumin serum
# Procedure: On day 15, the back of the rats were shaved, and was intradermally injected with a diluted antiserum at two spots on each side with 0.1 ml per spot. After 48 hours, a 1.0 ml mixed solution of 1% Evans Blue and 1% ovalbumin in physiological saline was injected into the tail vein of each rat. […] The rats were then sacrificed, and their back skin was inverted to measure the diameter of blue reaction spots to determine the difference between the dosing groups and the model group. A sample of the rat skin tissue was fixed with neutral formaldehyde, dehydrated with an alcohol gradient, embedded in paraffin, and examined for mast cell degranulation in the tissue[^3]. […] On day 15, the back of the rats were shaved, and was intradermally injected with a diluted antiserum at two spots on each side with 0.1 ml per spot. After 48 hours, a 1.0 ml mixed solution of 1% Evans Blue and 1% ovalbumin in physiological saline was injected into the tail vein of each rat. […] The rats were then sacrificed, and their back skin was inverted to measure the diameter of blue reaction spots to determine the difference between the dosing groups and the model group. A sample of the rat skin tissue was fixed with neutral formaldehyde, dehydrated with an alcohol gradient, embedded in paraffin, and examined for mast cell degranulation in the tissue^[3]. […] On day 15, the back of the rats were shaved, and was intradermally injected with a diluted antiserum at two spots on each side with 0.1 ml per spot. After 48 hours, a 1.0 ml mixed solution of 1% Evans Blue and 1% ovalbumin in physiological saline was injected into the tail vein of each rat. […] The rats were then sacrificed, and their back skin was inverted to measure the diameter of blue reaction spots to determine the difference between the dosing groups and the model group. A sample of the rat skin tissue was fixed with neutral formaldehyde, dehydrated with an alcohol gradient, embedded in paraffin, and examined for mast cell degranulation in the tissue^[3]. […] On day 15, the back of the rats were shaved, and was intradermally injected with a diluted antiserum at two spots on each side with 0.1 ml per spot. After 48 hours, a 1.0 ml mixed solution of 1% Evans Blue and 1% ovalbumin in physiological saline was injected into the tail vein of each rat. […] The rats were then sacrificed, and their back skin was inverted to measure the diameter of blue reaction spots to determine the difference between the dosing groups and the model group. A sample of the rat skin tissue was fixed with neutral formaldehyde, dehydrated with an alcohol gradient, embedded in paraffin, and examined for mast cell degranulation in the tissue^[3]. […] On day 15, the back of the rats were shaved, and was intradermally injected with a diluted antiserum at two spots on each side with 0.1 ml per spot. After 48 hours, a 1.0 ml mixed solution of 1% Evans Blue and 1% ovalbumin in physiological saline was injected into the tail vein of each rat. […] The rats were then sacrificed, and their back skin was inverted to measure the diameter of blue reaction spots to determine the difference between the dosing groups and the model group. A sample of the rat skin tissue was fixed with neutral formaldehyde, dehydrated with an alcohol gradient, embedded in paraffin, and examined for mast cell degranulation in the tissue^[3]. […] On day 15, the back of the rats were shaved, and was intradermally injected with a diluted antiserum at two spots on each side with 0.1 ml per spot. After 48 hours, a 1.0 ml mixed solution of 1% Evans Blue and 1% ovalbumin in physiological saline was injected into the tail vein of each rat. […] The rats were then sacrificed, and their back skin was inverted to measure the diameter of blue reaction spots to determine the difference between the dosing groups and the model group.
# [4] = prednisone 5.0 mg, Composition 6 study
# [5] = prednisone 5.0 mg, Composition 7 study
# [6] = prednisone 5.0 mg, Composition 8 study
compound,measurement,setting,value
C[C@]12C=CC(=O)C=C1CC[C@@H]1[C@@H]2C(=O)C[C@@]2(C)[C@H]1CC[C@]2(O)C(=O)CO [prednisone],Number of itching events (30 min),[1]; [4],15.43 ± 4.56
same,Number of itching events (30 min),[1]; [5],15.57 ± 5.33
same,Number of itching events (30 min),[1]; [6],14.88 ± 5.08
same,Number of itching events (30 min),"[1]; within 30 min after dextran, positive control prednisone 5.0 mg i.g. once daily 10 days",18.30 ± 4.62 and 14.25 ± 6.72 and 17.20 ± 4.08
same,swelling degree of mouse auricle discs,[2]; positive control prednisone 5.0 mg (5 mg/kg) i.g. once daily 10 days,5.07 ± 0.59 mg and 4.22 ± 0.96 mg and 4.80 ± 0.73 mg
same,swelling degree of mouse auricle discs,[2]; [4],4.62 ± 0.79 mg
same,swelling degree of mouse auricle discs,[2]; [5],4.84 ± 0.70 mg
same,swelling degree of mouse auricle discs,[2]; [6],4.60 ± 0.82 mg
same,Diameter of blue spots 1:4,[3]; [4],13.22 ± 1.90 mm
same,Diameter of blue spots 1:4,[3]; [5],12.48 ± 2.16 mm
same,Diameter of blue spots 1:4,[3]; [6],12.82 ± 2.62 mm
same,Diameter of blue spots 1:8,[3]; [4],8.65 ± 1.52 mm
same,Diameter of blue spots 1:8,[3]; [5],8.32 ± 1.63 mm
same,Diameter of blue spots 1:8,[3]; [6],8.54 ± 1.82 mm
same,Diameter of blue spots (mm) 1:4,"[3]; antiserum 1:4, positive control prednisone 5.0 mg (5 mg/kg) i.g. once daily 14 days",12.79 ± 1.88 mm and 11.94 ± 1.90 mm and 11.35 ± 1.74 mm
same,Diameter of blue spots (mm) 1:8,"[3]; antiserum 1:8, positive control prednisone 5.0 mg (5 mg/kg) i.g. once daily 14 days",6.72 ± 1.31 mm
same,Degranulation (mast cell),[3]; [4],19.80 ± 10.57
same,Histamine fluorescence (serum histamine content),[3]; [4],2.07 ± 0.76 mg·L
same,Degranulation (mast cell),[3]; [5],17.54 ± 11.23
same,Histamine fluorescence (serum histamine content),[3]; [5],2.11 ± 0.70 mg·L
same,Degranulation (mast cell),[3]; [6],17.95 ± 11.82
same,Histamine fluorescence (serum histamine content),[3]; [6],2.25 ± 0.76 mg·L
same,Degranulation (mast cell),"[3]; skin tissue, positive control prednisone 5.0 mg (5 mg/kg) i.g. once daily 14 days",22.54 ± 11.25 and 19.46 ± 8.72 and 21.33 ± 10.48
